pIC50: −log10 of the molar value.
Columns and labels:
human URAT1 = target: T1, human URAT1 (Homo sapiens, UniProt Q96S37); assay: Uric acid transport inhibitory test using human URAT1-expressing cells; format: cell-based; details: human URAT1-expressing HEK293 cells, 14C-uric acid 50 μM, uptake 5 min, room temperature; read-out: hURAT1 IC50
T1 construct: Human URAT1 full length cDNA was subcloned to expression vector pcDNA3.1; expressed in transfected cells; host or cells: HEK293 cells (pcDNA3.1, geneticin-selected)
T1 sequence (Q96S37 1-553): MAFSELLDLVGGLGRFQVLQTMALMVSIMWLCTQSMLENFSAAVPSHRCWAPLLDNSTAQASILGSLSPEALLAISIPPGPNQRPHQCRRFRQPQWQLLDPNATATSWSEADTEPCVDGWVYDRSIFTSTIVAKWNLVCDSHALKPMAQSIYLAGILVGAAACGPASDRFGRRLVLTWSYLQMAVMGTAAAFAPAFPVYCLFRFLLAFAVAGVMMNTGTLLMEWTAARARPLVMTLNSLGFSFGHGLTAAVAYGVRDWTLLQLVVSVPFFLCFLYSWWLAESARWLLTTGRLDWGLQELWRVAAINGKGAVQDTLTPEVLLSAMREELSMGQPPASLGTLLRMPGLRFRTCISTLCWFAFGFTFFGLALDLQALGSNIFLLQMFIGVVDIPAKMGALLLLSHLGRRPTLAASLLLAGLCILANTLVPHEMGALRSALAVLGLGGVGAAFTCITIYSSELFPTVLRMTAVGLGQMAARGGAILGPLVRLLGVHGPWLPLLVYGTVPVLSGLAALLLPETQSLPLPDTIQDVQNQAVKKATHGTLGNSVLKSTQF
Description: Experimental Example 1 Uric Acid Transport Inhibitory Test Using Human URAT1-Expressing Cells
Human URAT1 full length cDNA was subcloned to expression vector pcDNA3.1 and human URAT1 gene was transfected into human embryonic kidney derived cell line (HEK293 cells) by liposome method using Lipofectamine2000. Simultaneously, HEK293 cells transfected with expression vector pcDNA3.1 alone (hereinafter mock cells) were also produced. HEK293 cells expressing human URAT1 gene or mock cells were selected with geneticin resistance as an index. The functional expression of human URAT1 gene was confirmed by a method similar to the following method, using ^14C-uric acid transport into the cells as an index.
Human URAT1-expressing HEK293 cells or mock cells were cultured in Dulbecco's modified Eagle's MEM medium (high glucose) containing 10% fetal bovine serum, 0.5 mg/mL geneticin sulfate, 100 units/mL penicillin and 100 μg/mL streptomycin under the conditions of 37° C. and 5% CO2 in an incubator. The cells were plated in a 96 well plate (poly-D-Lysine coated) at 1×10^5 cells/well and the following uric acid transport inhibitory test was performed 24 hr later. This test was performed at room temperature.
After the medium was removed by aspiration from each well, the cells were washed once with Hank's Balanced Salt Solution (HBSS) and preincubated with HBSS (100 μL/well) for 5 min. HBSS was aspirated and an assay buffer (wherein NaCl in the above-mentioned HBSS had been substituted with Na-gluconate) containing various concentrations of the Example compound and a radioactive ligand (14C-uric acid; final concentration 50 μM) was added to each well at 50 μL/well and an uptake reaction was carried out for 5 min. After the reaction, the cells were washed twice with ice-cold HBSS (150 μL/well), and Microscinti™ 20 (PerkinElmer) was added at 50 μL/well. The cells were lysed by stirring and the radioactivity of each well was measured by a liquid scintillation counter (TOP COUNT, Packard).
The uric acid transport rate (%) of the Example compound at each concentration was calculated relative to the radioactivity (difference in radioactivity between human URAT1-expressing HEK293 cells and mock cells without addition of Example compound (DMSO addition)) showing URAT1 specific uric acid transport as 100%, and the concentration (IC50) of the Example compound necessary for inhibiting the uric acid transport rate by 50% was determined. In Table 24-Table 27, “+++” means IC50 value of less than 300 nM, “++” means IC50 value of 300 nM to less than 3000 nM, and “+” means IC50 value of not less than 3000 nM.

CYP2C9 = target: T2, CYP2C9 (Homo sapiens, UniProt P11712); assay: CYP inhibitory test using human liver microsome; format: in vitro ADME; details: model substrate diclofenac, 37° C., 10 min, read-out: CYP2C9 inhibition, IC50
T2 construct: Human liver microsome (20 mg protein/mL, 5 μL, Xenotech LLC, purchased from Lenexa Kans.); tissue Xenotech LLC; host or cells: human liver microsomes
Procedure: Experimental Example 2 CYP Inhibitory Test Using Human Liver Microsome
Human liver microsome (20 mg protein/mL, 5 μL, Xenotech LLC, purchased from Lenexa Kans.) was suspended in 100 mM potassium phosphate buffer (70 μL, pH 7.4), mixed with a solution (0.5 μL) of the Example compound dissolved in DMSO and preincubated at 37° C. for 5 min. NADPH producing system coenzyme solution (β-nicotinamide adenine dinucleotide phosphate: 5.2 mM, D-glucose-6-phosphate: 13.2 mM, magnesium chloride: 13.2 mM, glucose-6-phosphate dehydrogenase: 1.8 U/mL) 25 μL, and a model substrate (CYP3A4: midazolam 1 mM, CYP2D6: bufuralol 1 mM, CYP2C9: diclofenac 2 mM) 0.5 μL dissolved in DMSO were added to start the reaction. After incubation at 37° C. for 10 min., acetonitrile (200 μL) containing an internal standard substance (propranolol 1 μM) was added and the mixture was centrifuged (room temperature, 3000 rpm, 20 min). The amount of the metabolite produced from each model substrate in the supernatant was measured by high performance liquid chromatography/mass spectrometry (LC/MS/MS) and each CYP enzyme activity was determined. The concentration showing 50% inhibition (IC50) was calculated relative to the enzyme activity without addition of Example compound (DMSO 0.5 μL added) as 100%.
As a comparative example, the CYP enzyme activity of the compound described in JP-A-3-135917 was examined by determining the IC50 value in the same manner as above.

T2 sequence (P11712 whole entry): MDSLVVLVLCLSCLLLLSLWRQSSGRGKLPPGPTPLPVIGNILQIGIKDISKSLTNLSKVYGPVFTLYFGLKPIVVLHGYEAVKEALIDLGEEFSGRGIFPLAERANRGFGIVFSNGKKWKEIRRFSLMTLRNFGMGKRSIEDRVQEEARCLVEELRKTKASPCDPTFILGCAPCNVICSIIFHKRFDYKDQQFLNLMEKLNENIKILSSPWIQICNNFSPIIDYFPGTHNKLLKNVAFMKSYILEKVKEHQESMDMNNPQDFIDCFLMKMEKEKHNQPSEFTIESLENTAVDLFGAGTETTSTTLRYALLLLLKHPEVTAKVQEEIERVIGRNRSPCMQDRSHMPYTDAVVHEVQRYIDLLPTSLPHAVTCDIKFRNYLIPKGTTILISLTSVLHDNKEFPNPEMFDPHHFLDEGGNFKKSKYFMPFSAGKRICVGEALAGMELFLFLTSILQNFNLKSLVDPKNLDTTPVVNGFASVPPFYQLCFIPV

Row | Structure (SMILES) | pIC50 (human URAT1) | pIC50 (CYP2C9)
1 | Cc1cc(Cl)cc2c1OC(c1ccccc1)CN2C(=O)/C=C/C(=O)O (centres unmarked) [Example 84, (E)-4-(6-chloro-8-methyl-2-phenyl-2,3-dihydrobenzo[1,4]oxazin-4-yl)-4-oxo-2-butenoic acid] | 5.52 to 6.52 | < 4.30
2 | Cc1cccc2c1OC(c1ccccc1)CN2C(=O)/C=C/C(=O)O (centres unmarked) [Example 55, (E)-4-(8-methyl-2-phenyl-2,3-dihydrobenzo[1,4]oxazin-4-yl)-4-oxo-2-butenoic acid] | ≤ 5.52 | < 4.30
3 | Cc1cc(C)c2c(c1)N(CCC(=O)O)C(=O)[C@@H](CC(C)C)O2 [Example 91, 3-((R)-2-isobutyl-6,8-dimethyl-3-oxo-2,3-dihydrobenzo[1,4]oxazin-4-yl)propionic acid] | > 6.52 | < 4.30
4 | CC(C)c1cccc2c1OC(C(C)C)C(=S)N2CC(=O)O (centres unmarked) [Comparative Example, reference compound] | – | 4.80
5 | CC(C)C1CN(C(=O)/C=C/C(=O)O)c2cc(Cl)ccc2O1 (centres unmarked) [Example 69, (E)-4-(6-chloro-2-isopropyl-2,3-dihydrobenzo[1,4]oxazin-4-yl)-4-oxo-2-butenoic acid] | ≤ 5.52 | < 4.30
6 | CCCC1Oc2c(C)cc(C)cc2N(CCC(=O)O)C1=O (centres unmarked) [Example 102, 3-(6,8-dimethyl-3-oxo-2-propyl-2,3-dihydrobenzo[1,4]oxazin-4-yl)propionic acid] | > 6.52 | < 4.30
7 | CCc1cc(C)c2c(c1)N(CCC(=O)O)C(=O)C(C(C)C)O2 (centres unmarked) [Example 101, 3-(6-ethyl-2-isopropyl-8-methyl-3-oxo-2,3-dihydrobenzo[1,4]oxazin-4-yl)propionic acid] | > 6.52 | < 4.30
8 | CC(C)[C@@H]1Oc2c(Cl)cc(Cl)cc2N(CCC(=O)O)C1=O [Example 111, 3-((S)-6,8-dichloro-2-isopropyl-3-oxo-2,3-dihydrobenzo[1,4]oxazin-4-yl)propionic acid] | 5.52 to 6.52 | < 4.30
9 | CC(C)c1cccc2c1OC(C(C)C)C(=O)N2CCC(=O)O (centres unmarked) [Example 14, 3-(2,8-diisopropyl-3-oxo-2,3-dihydrobenzo[1,4]oxazin-4-yl)propionic acid] | 5.52 to 6.52 | < 4.30
10 | CC(C)c1cccc2c1OC(C(C)C)C(=O)N2CC(=O)O (centres unmarked) [Example 9, (2,8-diisopropyl-3-oxo-2,3-dihydrobenzo[1,4]oxazin-4-yl)acetic acid] | ≤ 5.52 | 4.52
11 | Cc1cc(Cl)c2c(c1)N(CCC(=O)O)C(=O)[C@@H](C(C)C)O2 [Example 106, 3-((R)-8-chloro-2-isopropyl-6-methyl-3-oxo-2,3-dihydrobenzo[1,4]oxazin-4-yl)propionic acid] | > 6.52 | < 4.30
12 | Cc1cccc2c1OC(C(C)C)CN2C(=O)/C=C/C(=O)O (centres unmarked) [Example 54, (E)-4-(2-isopropyl-8-methyl-2,3-dihydrobenzo[1,4]oxazin-4-yl)-4-oxo-2-butenoic acid] | ≤ 5.52 | < 4.30
13 | CC[C@H](C)[C@H]1Oc2c(C)cc(C)cc2N(CCC(=O)O)C1=O [Example 105, 3-[(R)-2-((S)-sec-butyl)-6,8-dimethyl-3-oxo-2,3-dihydrobenzo[1,4]oxazin-4-yl]propionic acid] | > 6.52 | < 4.30
14 | Cc1cc(C)c2c(c1)N(CCC(=O)O)C(=O)C(CC(C)C)O2 (centres unmarked) [Example 90, 3-(2-isobutyl-6,8-dimethyl-3-oxo-2,3-dihydrobenzo[1,4]oxazin-4-yl)propionic acid] | > 6.52 | –
15 | CC(C)C1Oc2ccc(C(C)(C)C)cc2N(CCC(=O)O)C1=O (centres unmarked) [Example 88, 3-(6-tert-butyl-2-isopropyl-3-oxo-2,3-dihydrobenzo[1,4]oxazin-4-yl)propionic acid] | 5.52 to 6.52 | –
16 | CC(C)c1cccc2c1OC(C(C)C)C(=O)N2CC(C)(C)C(=O)O (centres unmarked) [Example 42, 3-(2,8-diisopropyl-3-oxo-2,3-dihydrobenzo[1,4]oxazin-4-yl)-2,2-dimethylpropionic acid] | 5.52 to 6.52 | –
17 | O=C(O)CCN1C(=O)C(c2ccccc2)Oc2cc(Cl)ccc21 (centres unmarked) [Example 76, 3-(7-chloro-3-oxo-2-phenyl-2,3-dihydrobenzo[1,4]oxazin-4-yl)propionic acid] | ≤ 5.52 | –
18 | CC(C)C1Oc2c(C3CCCCC3)cccc2N(CCC(=O)O)C1=O (centres unmarked) [Example 50, 3-(8-cyclohexyl-2-isopropyl-3-oxo-2,3-dihydrobenzo[1,4]oxazin-4-yl)propionic acid] | ≤ 5.52 | –
19 | Cc1ccc2c(c1)N(CCC(=O)O)C(=O)C(c1ccccc1)O2 (centres unmarked) [Example 75, 3-(6-methyl-3-oxo-2-phenyl-2,3-dihydrobenzo[1,4]oxazin-4-yl)propionic acid] | 5.52 to 6.52 | –
20 | CCc1cccc2c1OC(C(C)C)CN2C(=O)/C=C/C(=O)O (centres unmarked) [Example 60, (E)-4-(8-ethyl-2-isopropyl-2,3-dihydrobenzo[1,4]oxazin-4-yl)-4-oxo-2-butenoic acid] | 5.52 to 6.52 | –
21 | O=C(O)CCC(=O)N1CCOc2ccccc21 [Example 23, 4-(2,3-dihydrobenzo[1,4]oxazin-4-yl)-4-oxobutyric acid] | ≤ 5.52 | –
22 | O=C(O)CN1C(=S)COc2ccccc21 [Example 17, (3-thioxo-2,3-dihydrobenzo[1,4]oxazin-4-yl)acetic acid] | ≤ 5.52 | –
23 | CC(C)C1CN(C(=O)/C=C/C(=O)O)c2cccc(C(C)(C)C)c2O1 (centres unmarked) [Example 52, (E)-4-(8-tert-butyl-2-isopropyl-2,3-dihydrobenzo[1,4]oxazin-4-yl)-4-oxo-2-butenoic acid] | ≤ 5.52 | –
24 | Cc1cc(Cl)c2c(c1)N(CCC(=O)O)C(=O)C(C(C)C)O2 (centres unmarked) [Example 98, 3-(8-chloro-2-isopropyl-6-methyl-3-oxo-2,3-dihydrobenzo[1,4]oxazin-4-yl)propionic acid] | > 6.52 | –
25 | CC(C)c1cccc2c1O[C@H](C(C)C)C(=S)N2CC(=O)O [Example 8, ((R)-2,8-diisopropyl-3-thioxo-2,3-dihydrobenzo[1,4]oxazin-4-yl)acetic acid] | 5.52 to 6.52 | –
26 | CC(C)C1Oc2c(cccc2C(C)(C)C)N(CCC(=O)O)C1=O (centres unmarked) [Example 46, 3-(8-tert-butyl-2-isopropyl-3-oxo-2,3-dihydrobenzo[1,4]oxazin-4-yl)propionic acid] | ≤ 5.52 | –
